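In this assay, cells in 96-well plates receive the compound at five concentrations for 48 hours. Endpoints are linearly interpolated between the surrounding concentrations. GI50 = concentration required for 50% inhibition of growth. TGI is the concentration that stops growth completely.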
Columns and labels:
Assay in all cases: NCI-60 cell line screen, 48 h
[1] = tested on: TK-10 renal
[2] = tested on: A549 NSCLC
[3] = tested on: UO-31 renal
[4] = tested on: COLO 205 colon
[5] = tested on: NCI-H522 lung
[6] = tested on: HL-60(TB) leukemia
[7] = tested on: SK-MEL-28 melanoma
[8] = tested on: OVCAR-5 ovarian
[9] = tested on: SF-539 CNS
[10] = tested on: MALME-3M melanoma

| SMILES | GI50 [1] [µM] | TGI [1] [µM] | GI50 [2] [µM] | TGI [2] [µM] | GI50 [3] [µM] | TGI [3] [µM] | GI50 [4] [µM] | TGI [4] [µM] | GI50 [5] [µM] | TGI [5] [µM] | GI50 [6] [µM] | TGI [6] [µM] | GI50 [7] [µM] | TGI [7] [µM] | GI50 [8] [µM] | TGI [8] [µM] | GI50 [9] [µM] | TGI [9] [µM] | GI50 [10] [µM] | TGI [10] [µM] |
| --- | --- | --- | --- | --- | --- | --- | --- | --- | --- | --- | --- | --- | --- | --- | --- | --- | --- | --- | --- | --- |
| COc1ccc(C(=O)/C=C/c2cccnc2Nc2cc(OC)c(OC)c(OC)c2)cc1 | 1.83 | 5.53 | 1.67 | 18.5 | 1.17 | 3.04 | 1.95 | 6.12 | 0.93 | 2.65 | 1.27 | 4.01 | 2.7 | 8.29 | 3.36 | 10 | 1.81 | 5.62 | 6.32 | 20.1 |
| COc1cc([C@@H]2c3cc4c(cc3C(O[C@@H]3O[C@@H]5CO[C@@H](c6cccs6)OC5[C@H](O)[C@H]3O)C3COC(=O)[C@@H]32)OCO4)cc(OC)c1O (stereo not given in full) | 0.118 | 0.799 | 0.0209 | 0.822 | 0.179 | 1.14 | 0.0984 | 0.809 | 0.0369 | 0.396 | 0.0104 | 0.0527 | 0.171 | 0.953 | 0.382 | 5.3 | 0.0268 | 0.199 | 0.0768 | 1.02 |
| Cn1cc(-c2csc(-c3cccc(F)c3)n2)c2cccnc21 | 17.9 | 38.1 | 20.9 | 47.4 | 15.9 | 50.6 | 15.7 | 30.1 | 15.9 | 36 | 14.4 | 49.9 | 17.6 | 32.8 | 14.8 | 31.5 | 15.5 | 30.1 | 17.6 | 45.5 |
| NCCCCn1c2c(c3ccccc3c1=O)C(=O)c1ccccc1-2 | 0.226 | 1.25 | 0.0263 | 0.361 | 0.123 | 1.45 | 0.92 | 11 | 0.424 | 2.31 | 0.0382 | 0.0919 | 0.671 | – | 0.494 | 1.37 | 0.102 | 0.462 | 0.311 | 1.12 |
| Cc1ccc(N=NC(C(=O)c2ccccc2)C(=O)c2ccccc2)cc1 | – | > 100 | – | > 100 | – | 44.4 | – | 52.4 | – | 44.3 | – | 33.7 | – | > 100 | – | 58 | – | 97.3 | – | > 100 |
| O=C(C[C@@H](C(=O)NCc1cccc(C(F)(F)F)c1)N1C(=O)[C@@H](N2C(=O)OC[C@@H]2c2ccccc2)[C@H]1/C=C/c1ccccc1)NC1CCN(Cc2ccccc2)CC1 | 10.2 | 23.4 | 5.86 | 21.4 | 13.5 | 55.3 | 2.48 | 7.12 | 2.81 | 13.2 | 10.4 | 33.8 | 2.19 | 5.8 | 13 | 29.9 | 2.03 | 3.98 | 2.78 | 7.39 |
| COc1ccc(OC(=O)O[C@H]2[C@H](O[C@H]3[C@@H](O)COC(O[C@H]4C[C@H]5[C@@H]6CC=C7C[C@@H](O)CC[C@]7(C)[C@H]6CC[C@]5(C)[C@H]4[C@H](C)C(=O)CCC(C)C)[C@@H]3OC(C)=O)OC[C@@H](O)[C@@H]2O)cc1 (stereo not given in full) | 2.24 | 21.1 | 0.145 | 21.9 | 0.0874 | 0.995 | 0.164 | 1.16 | 0.165 | 2.1 | 0.0686 | 18.7 | 0.0185 | 0.155 | 0.89 | 15.9 | < 0.01 | 0.0764 | 0.122 | 3.84 |
| Cc1ccc(NC(=O)C2C(=O)N(c3ccc(C)c(C)c3)C(=O)/C2=N/O)cc1C (stereo not given) | – | > 100 | – | > 100 | – | > 100 | – | > 100 | – | > 100 | – | > 100 | – | > 100 | – | > 100 | – | > 100 | – | > 100 |
| CCCCNC(=O)NS(=O)(=O)c1ccc(N2N=C(c3ccc(C)cc3C)CC2c2ccc(N(C)C)cc2)cc1 (stereo not given) | 5.64 | > 100 | 3.2 | > 100 | 4.57 | > 100 | 3.19 | 7.56 | 3.25 | 14.8 | 3.48 | 13.6 | 2.56 | 7.96 | 5.24 | 96.1 | 3.22 | 14 | 3.08 | 41.7 |
| CCOC(=O)c1c(C)n(Cc2ccc(OC)cc2)c2c1cc(O)c1[nH]c3c(c12)CCCC3 | 12.5 | 52.9 | 8.71 | 71.9 | 1.84 | 4.05 | 0.0865 | 8.35 | 1.75 | 3.97 | 3.03 | > 100 | 10.7 | > 100 | 2.39 | 17.5 | 2.76 | 7.07 | 2.85 | 18.4 |
| Cc1cc(NS(=O)(=O)c2ccc(NC(=O)c3cccc4c(=O)c5ccccc5[nH]c34)cc2)no1 | – | > 100 | – | > 100 | – | 72.8 | – | > 100 | – | 56.6 | – | 74.6 | – | > 100 | – | > 100 | – | > 100 | – | > 100 |
| CCCNC(=S)N/N=C(\C)c1ccccn1 | 0.71 | > 100 | 0.447 | > 100 | 0.293 | > 82.8 | 0.04 | > 100 | 3.22 | > 100 | – | 0.333 | 1.98 | > 100 | 0.529 | > 100 | 0.847 | > 30.9 | 2.11 | > 100 |
| O=C(/C=C/c1ccccc1Cl)c1ccccc1Cl | – | > 100 | – | 61.5 | – | 34.3 | – | 44.8 | – | 38.1 | – | 47.1 | – | 36.5 | – | 46.4 | – | 36.7 | – | 69.4 |
| CCC1(O)C(=O)OCc2c1cc1n(c2=O)Cc2cc3c(N)cccc3nc2-1 (stereo not given) | – | 35.8 | – | 10.8 | – | 0.126 | – | 6.41 | 0.0231 | 0.763 | – | 0.111 | – | 9.19 | 0.106 | 2.67 | – | 0.0409 | – | 5.67 |
| COc1ccc(-c2nc(-c3nc4ccc(C)cc4[nH]3)c3ccccn23)cc1 | 3.39 | 9.22 | 2.67 | > 100 | 1.67 | 6.09 | 3.23 | > 100 | 1.95 | 4.63 | 2.58 | 6.53 | 4.61 | > 100 | 4.69 | > 100 | 3.32 | > 100 | 2.83 | 8.62 |
| C[C@]12CC[C@@H]3c4ccc(O)cc4C[C@@H](CCCCCCCCCS(=O)CCCC(F)(F)C(F)(F)F)[C@H]3[C@@H]1CC[C@@H]2O (stereo not given in full) | > 51.8 | > 100 | > 69.9 | > 100 | > 100 | > 100 | > 100 | > 100 | > 26.2 | > 100 | 6.53 | > 100 | > 100 | > 100 | > 100 | > 100 | > 100 | > 100 | > 100 | > 100 |
| COc1ccc(-n2cc(-c3cc(OC)c(OC)c(OC)c3)[nH]c2=S)cc1OC | > 100 | > 100 | > 100 | > 100 | > 100 | > 100 | > 100 | > 100 | > 100 | > 100 | > 100 | > 100 | > 100 | > 100 | > 100 | > 100 | > 100 | > 100 | > 100 | > 100 |
| O=C(O)c1cc(N=Nc2ccc([As](=O)(O)O)cc2)ccc1O | – | > 100 | – | > 100 | – | > 100 | – | > 100 | – | > 100 | – | > 100 | – | > 100 | – | > 100 | – | > 100 | – | > 100 |
| COc1cc(Cn2c(-c3ccccc3)cc3c2-c2oncc2CC3)cc(OC)c1OC | 7.7 | > 100 | 1.15 | > 100 | 3.23 | > 100 | 0.696 | 3.13 | 0.294 | 5.99 | 0.32 | 1.36 | 1.14 | 45.9 | 6.46 | > 100 | 0.735 | 10.3 | 18.4 | 84.4 |
| Cn1cc(C2=C(c3cn(CCCN=C(N)N)c4ccccc34)C(=O)NC2=O)c2ccccc21 | > 25 | > 25 | > 25 | > 25 | > 25 | > 25 | 9.76 | > 25 | > 22.2 | > 25 | > 25 | > 25 | > 25 | > 25 | > 25 | > 25 | > 25 | > 25 | > 25 | > 25 |
| N#C/C(C(=S)Nc1ccccc1)=C1/NN=C2c3ccccc3C(=O)NN21 | 21.2 | 50.4 | 34 | > 100 | 33.4 | > 100 | 24.9 | > 100 | 11.8 | 63.3 | 22 | 61.7 | 25.3 | 97.7 | 56.1 | > 100 | 18.7 | 40.9 | 13.9 | > 100 |
| O=C(NC1CCCCCC1)C1C(=O)N(C2CCCCCC2)C(=O)/C1=N\O (stereo not given) | – | 94.3 | – | > 100 | – | 97.5 | – | 31.2 | – | 45 | – | 47.8 | – | 87 | – | > 100 | – | 61.3 | – | 68.5 |
| COc1cc2c3c(n(CCCBr)c(=O)c2cc1OC)-c1ccc(NC(C)=O)cc1C3=O | 19.7 | > 100 | 25.4 | > 100 | 5.68 | 65 | 14.1 | > 100 | 12.4 | > 100 | 0.55 | 7.78 | 40.5 | > 100 | 52.6 | > 100 | 3.78 | 16.2 | 60.9 | > 100 |
| NCCCNCCSSCCCCS(=O)O | – | > 100 | – | > 100 | – | > 100 | – | 35.7 | – | 32.3 | – | 40.7 | – | 55.2 | – | > 100 | – | > 100 | – | 49.2 |
| COc1ccc(/C(=N/Nc2ccc([N+](=O)[O-])cc2)Sc2cc(Cl)c(C)cc2S(N)(=O)=O)cc1 | 2.47 | 6.73 | 5.25 | 18.1 | 8.49 | > 41.7 | 8.57 | 33.3 | 13.1 | 38.1 | 40.3 | > 100 | 6.57 | 16.6 | 7.59 | 19.2 | 3.74 | 9.81 | 3.13 | 10.1 |
| NC(N)=NC(N)=Nc1cc2ccccc2c2ccccc12 | 6.08 | 20.5 | 4.58 | 18.1 | 5.05 | 19.9 | 1.84 | 4.49 | 5.66 | 21.5 | 10.5 | 26.3 | 13.2 | 26.2 | 11 | 24.3 | 10.6 | 23.5 | 7.16 | 22.1 |
| CC12CCCC(CC(=O)c3[nH]c4ccccc4c31)C2 (stereo not given) | 14.6 | > 90.4 | 2.26 | > 55.9 | 2.4 | > 100 | 1.29 | 5.3 | 0.451 | 5.29 | 0.34 | 3.94 | 2.03 | > 100 | 2.82 | > 100 | 0.698 | 5.75 | 0.916 | 35.6 |

— PubChem BioAssay (NCI)
